Results on three molecules are retold here after publication PMC5466822 (Organic & biomolecular chemistry, 2016).

The target in experiment [1] is T1, p97 (Homo sapiens, UniProt P55072). Kind of experiment: malachite green ATPase assay, 9-point dose-response. It is filed as biochemical.
Experiment [2] concerns the target T1, p97. Put plainly: malachite green ATPase assay, dose-response. It is filed as biochemical.

Usually IC50 stands for the midpoint of a concentration-inhibition curve.

T1 sequence (P55072 2-806): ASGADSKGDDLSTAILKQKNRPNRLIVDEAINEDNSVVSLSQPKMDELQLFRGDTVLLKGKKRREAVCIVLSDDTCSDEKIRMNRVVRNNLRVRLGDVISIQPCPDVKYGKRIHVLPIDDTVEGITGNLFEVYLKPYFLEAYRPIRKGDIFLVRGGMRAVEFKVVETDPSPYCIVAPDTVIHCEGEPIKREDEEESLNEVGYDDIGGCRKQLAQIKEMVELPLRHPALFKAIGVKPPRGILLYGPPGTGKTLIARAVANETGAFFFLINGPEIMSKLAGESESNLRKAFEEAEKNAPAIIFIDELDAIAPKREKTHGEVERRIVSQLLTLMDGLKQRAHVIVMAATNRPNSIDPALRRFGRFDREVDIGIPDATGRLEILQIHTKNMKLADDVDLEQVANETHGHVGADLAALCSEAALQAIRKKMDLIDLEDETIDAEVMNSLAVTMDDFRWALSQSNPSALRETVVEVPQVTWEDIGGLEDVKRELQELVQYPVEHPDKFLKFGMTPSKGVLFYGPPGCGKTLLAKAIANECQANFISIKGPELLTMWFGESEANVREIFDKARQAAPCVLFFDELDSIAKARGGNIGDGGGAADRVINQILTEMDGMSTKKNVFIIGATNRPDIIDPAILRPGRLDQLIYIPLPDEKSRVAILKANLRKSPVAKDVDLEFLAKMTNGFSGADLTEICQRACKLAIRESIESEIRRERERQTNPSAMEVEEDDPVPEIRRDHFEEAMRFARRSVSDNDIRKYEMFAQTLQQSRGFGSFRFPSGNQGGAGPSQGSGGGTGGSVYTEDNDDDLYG

Molecule `C[C@H]1CCC/C=C/C(=O)c2c(O)cc(O)cc2CC(=O)O1` [compound 2, 10(11)-dehydrocurvularin] gave an IC50 in experiment [1] of 15.3 ± 9.9 µM. Consider `C[C@H]1CCC/C=C/C(=O)c2c(cc(O)c(Cl)c2O)CC(=O)O1` [compound 3, 6-chloro-10(11)-dehydrocurvularin], for which the IC50 in experiment [2] came out at 24.3 µM. `C[C@H]1CCC/C=C/C(=O)c2c(O)c(Cl)c(O)c(Cl)c2CC(=O)O1` [compound 4, 4,6-dichloro-10(11)-dehydrocurvularin]: in experiment [2], the IC50 came to 13.9 µM.
